Test results published in US20120107601A1, “SYSTEMS AND METHODS OF TEMPLATING USING PARTICLES SUCH AS COLLOIDAL PARTICLES” (President and Fellows of Harvard College, priority 2009, published 2012).

Description: To ensure that the introduction of the hydrophobic compounds into the template structure would not lead to rearrangement of the particles in the 3D array, some of the templates were sintered prior to the introduction step. Sintering temperatures between 700 and 1200° C. were used to evaluate the conditions needed to form strong interparticle necks without distorting the initial packed structure. Sintering was accomplished under a O2 gas flow of 0.7 L/min (Thermo Scientific Lindberg Blue M Three-Zone Tube Furnace, Cole-Parmer, Vernon Hills, Ill., USA) applying a dwell time period of 2 hours. Introduction of the hydrophobic compounds into the interstices of the packed array of particles was accomplished by first placing the template on a hot plate at a predetermined temperature and afterwards depositing the powdery hydrophobic compound on the top of the heated template. The temperature of the hot plate was adjusted to enable melting of the hydrophobic compound on the template surface. Once in liquid form, the compound was sucked into the interstices of the template structure by capillary forces. […] After fluid introduction, the templates were removed from the hot plate and cooled in air at ambient temperature. The fluid-introduced templates were finally fractured to enable evaluation of the fluid-introduction efficiency in an electron microscope.
Drug-template composites were prepared in the following manner. Templates were prepared from an aqueous colloidal dispersion using the slip-casting method described previously. After slip-casting, the templates were dried in an oven at 110° C. for 12 hours. The templates were then placed on a hotplate at a temperature approximately 5° C. to 10° C. above the melting point of the drug. A small amount of the raw crystalline drug was placed on the surface of the hot template. As the drug was melted, it was drawn into the template by capillary action. These steps were repeated until the template was filled completely. […] The drug-template composites were prepared for dissolution by mild grinding of the sample with a hand-held mortar and pestle.
The samples were prepared for NMR by the following procedure. Unprocessed, crystalline powders (BASF) were dissolved in deuterated solvents at a concentration of approximately 10 mg/mL and filtered through a 0.2 micrometer PTFE filter to remove any solid impurities before running NMR measurements. Drug-silica composites were ground using a hand-held mortar and pestle, dissolved in deuterated solvents at a (drug) concentration of approximately 10 mg/mL and filtered through a 0.2 micrometer PTFE filter to remove the silica template and any additional solid impurities before running NMR measurements. […] Estradiol was dissolved in deuterated DMSO. […] It is, therefore, to be understood that the foregoing embodiments are presented by way of example only and that, within the scope of the appended claims and equivalents thereto, the invention may be practiced otherwise than as specifically described and claimed. The present invention is directed to each individual feature, system, article, material, kit, and/or method described herein. In addition, any combination of two or more such features, systems, articles, materials, kits, and/or methods, if such features, systems, articles, materials, kits, and/or methods are not mutually inconsistent, is included within the scope of the present invention.

Compound | melting without decomposition (introduction of molten compound into templates) | stability upon melting | visible color change upon melting and infiltration into the composites
CC(C)OC(=O)C(C)(C)Oc1ccc(C(=O)c2ccc(Cl)cc2)cc1 [fenofibrate] | can be melted without decomposition |  | 
CCC(C)n1ncn(-c2ccc(N3CCN(c4ccc(OCC5COC(Cn6cncn6)(c6ccc(Cl)cc6Cl)O5)cc4)CC3)cc2)c1=O (centres unmarked) [itraconazole] |  | stable upon melting | no visible color change
C[C@]12CC[C@@H]3c4ccc(O)cc4CC[C@H]3[C@@H]1CC[C@@H]2O [estradiol] |  | stable upon melting | no visible color change

The next lines start with the values.

melting without decomposition (introduction of molten compound into templates) | stability upon melting | visible color change upon melting and infiltration into the composites | Compound
 | stable upon melting | no visible color change | CC(=O)N1CCN(c2ccc(OCC3COC(Cn4ccnc4)(c4ccc(Cl)cc4Cl)O3)cc2)CC1 (centres unmarked) [ketoconazole]
 | stable upon melting | no visible color change | Clc1ccccc1C(c1ccccc1)(c1ccccc1)n1ccnc1 [chlotrimazole]
can be melted without decomposition | stable upon melting |  | C(=C\c1ccccc1)/CN1CCN(C(c2ccccc2)c2ccccc2)CC1 [cinnarizine]
